# Data published in US11370798B2 (Vertex Pharmaceuticals Incorporated, priority 2012, dated 2022).
# Tested on: HCT116 colorectal cancer cells
# Experiment: Cisplatin sensitization assay (96 h cell viability MTS);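 note: Test-compound concentration that lowers the Cisplatin IC50 by a set fold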
# Type: cell-based
# Conditions: compound and Cisplatin added simultaneously, Cisplatin sensitization value
# Summary of the method: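 Viability read by MTS (1 h at 37° C) after 96 h co-exposure at 37° C, 5% CO2. Test compound and cisplatin were dosed simultaneously in a full concentration matrix, each 2-fold serially diluted from 10 μM final; sensitization values binned in μM.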
row,Compound,Cisplatin Sensitization Assay
1,"CN1CC(NC(=O)C2CCN(c3c(F)cncc3NC(=O)c3c(N)nn4cc(F)cnc34)CC2)C1 [I-G-23, 2-amino-6-fluoro-N-(5-fluoro-4-(4-((1-methylazetidin-3-yl)carbamoyl)piperidin-1-yl)pyridin-3-yl)pyrazolo[1,5-a]pyrimidine-3-carboxamide]",+++ (Cisplatin sensitization value of <0.02 μM)
2,"Nc1nn2cc(Cl)cnc2c1C(=O)Nc1cnccc1OCCO [I-O-66, 2-amino-6-chloro-N-(4-(2-hydroxyethoxy)pyridin-3-yl)pyrazolo[1,5-a]pyrimidine-3-carboxamide]",+ (Cisplatin sensitization value>0.2 μM but <5 μM)
3,"Nc1nn2cc(Cl)cnc2c1C(=O)Nc1cnccc1N1CCN2CCC[C@@H]2C1 [I-N-65, (R)-2-amino-6-chloro-N-(4-(hexahydropyrrolo[1,2-a]pyrazin-2(1H)-yl)pyridin-3-yl)pyrazolo[1,5-a]pyrimidine-3-carboxamide]",+ (Cisplatin sensitization value>0.2 μM but <5 μM)
4,"Nc1nn2cc(F)cnc2c1C(=O)Nc1cnccc1N1CCN(S(=O)(=O)C2CC2)CC1 [I-N-176, 2-amino-N-(4-(4-(cyclopropylsulfonyl)piperazin-1-yl)pyridin-3-yl)-6-fluoropyrazolo[1,5-a]pyrimidine-3-carboxamide]",+++ (Cisplatin sensitization value of <0.02 μM)
5,"CC(C)(C)Oc1ccncc1NC(=O)c1c(N)nn2cc(F)cnc12 [I-O-88, 2-amino-N-(4-(tert-butoxy)pyridin-3-yl)-6-fluoropyrazolo[1,5-a]pyrimidine-3-carboxamide]",+++ (Cisplatin sensitization value of <0.02 μM)
6,"Nc1nn2cc(F)cnc2c1C(=O)Nc1cnccc1N1CCCC2(COC2)C1 [I-N-253, N-(4-(2-oxa-6-azaspiro[3.5]nonan-6-yl)pyridin-3-yl)-2-amino-6-fluoropyrazolo[1,5-a]pyrimidine-3-carboxamide]",+++ (Cisplatin sensitization value of <0.02 μM)
7,CNCCCN(C)C(=O)C1CCN(c2c(F)cncc2NC(=O)c2c(N)nn3cc(F)cnc23)CC1 [I-G-17],+ (Cisplatin sensitization value>0.2 μM but <5 μM)
8,"N#CCc1cnc2c(C(=O)Nc3cnccc3N3CCOC(CN)C3)c(N)nn2c1 (stereo not drawn) [I-N-90, 2-amino-N-(4-(2-(aminomethyl)morpholino)pyridin-3-yl)-6-(cyanomethyl)pyrazolo[1,5-a]pyrimidine-3-carboxamide]",+ (Cisplatin sensitization value>0.2 μM but <5 μM)
9,"Nc1nn2cc(F)cnc2c1C(=O)Nc1cncc(F)c1N1CCC(S(=O)(=O)N2CCC2)CC1 [I-N-169, 2-amino-N-(4-(4-(azetidin-1-ylsulfonyl)piperidin-1-yl)-5-fluoropyridin-3-yl)-6-fluoropyrazolo[1,5-a]pyrimidine-3-carboxamide]",+++ (Cisplatin sensitization value of <0.02 μM)
10,"COC1(C)CN(C(=O)C2CCN(c3c(F)cncc3NC(=O)c3c(N)nn4cc(F)cnc34)CC2)C1 [I-G-75, 2-amino-6-fluoro-N-(5-fluoro-4-(4-(3-methoxy-3-methylazetidine-1-carbonyl)piperidin-1-yl)pyridin-3-yl)pyrazolo[1,5-a]pyrimidine-3-carboxamide]",+++ (Cisplatin sensitization value of <0.02 μM)
11,"CC(C)N1CCN2CCN(c3ccncc3NC(=O)c3c(N)nn4cc(F)cnc34)CC2C1=O (stereo not drawn) [I-N-245, 2-amino-6-fluoro-N-(4-(8-isopropyl-9-oxohexahydro-1H-pyrazino[1,2-a]pyrazin-2(6H)-yl)pyridin-3-yl)pyrazolo[1,5-a]pyrimidine-3-carboxamide]",++ (Cisplatin sensitization value>0.02 μM but <0.2 μM)
12,"Nc1nn2cc(F)cnc2c1C(=O)Nc1cnccc1Oc1cccnc1 [I-O-7, 2-amino-6-fluoro-N-(4-(pyridin-3-yloxy)pyridin-3-yl)pyrazolo[1,5-a]pyrimidine-3-carboxamide]",++ (Cisplatin sensitization value>0.02 μM but <0.2 μM)
13,"Nc1nn2cc(F)cnc2c1C(=O)Nc1cnccc1N1CCS(=O)(=O)CC1 [I-N-210, 2-amino-N-(4-(1,1-dioxidothiomorpholino)pyridin-3-yl)-6-fluoropyrazolo[1,5-a]pyrimidine-3-carboxamide]",+++ (Cisplatin sensitization value of <0.02 μM)
14,"Cn1cc(-c2ccncc2NC(=O)c2c(N)nn3cc(F)cnc23)ccc1=O [I-C-59, 2-amino-6-fluoro-N-(1-methyl-6-oxo-1,6-dihydro-[3,4′-bipyridin]-3′-yl)pyrazolo[1,5-a]pyrimidine-3-carboxamide]",++ (Cisplatin sensitization value>0.02 μM but <0.2 μM)
15,"CN1CC2CN(C(=O)C3CCN(c4c(F)cncc4NC(=O)c4c(N)nn5cc(F)cnc45)CC3)CC2C1 (stereo not drawn) [I-G-18, 2-amino-6-fluoro-N-(5-fluoro-4-(4-(5-methyloctahydropyrrolo[3,4-c]pyrrole-2-carbonyl)piperidin-1-yl)pyridin-3-yl)pyrazolo[1,5-a]pyrimidine-3-carboxamide]",+++ (Cisplatin sensitization value of <0.02 μM)
16,"Nc1nn2cc(F)cnc2c1C(=O)Nc1cncc(F)c1N1CCC(n2ccnc2)CC1 [I-N-288, N-(4-(4-(1H-imidazol-1-yl)piperidin-1-yl)-5-fluoropyridin-3-yl)-2-amino-6-fluoropyrazolo[1,5-a]pyrimidine-3-carboxamide]",+++ (Cisplatin sensitization value of <0.02 μM)
17,"CN(C)CCCN(C)C(=O)C1CCN(c2c(F)cncc2NC(=O)c2c(N)nn3cc(F)cnc23)CC1 [I-G-16, 2-amino-N-(4-(4-((3-(dimethylamino)propyl)(methyl)carbamoyl)piperidin-1-yl)-5-fluoropyridin-3-yl)-6-fluoropyrazolo[1,5-a]pyrimidine-3-carboxamide]",+++ (Cisplatin sensitization value of <0.02 μM)
18,"Nc1nn2cc(F)cnc2c1C(=O)Nc1cnccc1N1CCN2CCOC[C@H]2C1 [I-N-116, (R)-2-amino-6-fluoro-N-(4-(hexahydropyrazino[2,1-c][1,4]oxazin-8(1H)-yl)pyridin-3-yl)pyrazolo[1,5-a]pyrimidine-3-carboxamide]",++ (Cisplatin sensitization value>0.02 μM but <0.2 μM)
19,"Nc1nn2cc(F)cnc2c1C(=O)Nc1cnccc1-c1ccncc1 [I-C-24, N-([4,4′-bipyridin]-3-yl)-2-amino-6-fluoropyrazolo[1,5-a]pyrimidine-3-carboxamide]",+++ (Cisplatin sensitization value of <0.02 μM)
20,"Cc1cnccc1-c1ccncc1NC(=O)c1c(N)nn2cc(F)cnc12 [I-C-29, 2-amino-6-fluoro-N-(3′-methyl-[4,4′-bipyridin]-3-yl)pyrazolo[1,5-a]pyrimidine-3-carboxamide]",+++ (Cisplatin sensitization value of <0.02 μM)
21,"Nc1nn2cc(F)cnc2c1C(=O)Nc1cncc(F)c1N1CCN2C(=O)CCC2C1 (stereo not drawn) [I-N-163, 2-amino-6-fluoro-N-(5-fluoro-4-(6-oxohexahydropyrrolo[1,2-a]pyrazin-2(1H)-yl)pyridin-3-yl)pyrazolo[1,5-a]pyrimidine-3-carboxamide]",+++ (Cisplatin sensitization value of <0.02 μM)
22,"N#CCc1cnc2c(C(=O)Nc3cnccc3OC3CCOC3)c(N)nn2c1 (racemic) [I-O-37, (R,S)-2-amino-6-(cyanomethyl)-N-(4-((tetrahydrofuran-3-yl)oxy)pyridin-3-yl)pyrazolo[1,5-a]pyrimidine-3-carboxamide]",+++ (Cisplatin sensitization value of <0.02 μM)
23,"C[C@H]1CN(C(=O)C2CCN(c3c(F)cncc3NC(=O)c3c(N)nn4cc(F)cnc34)CC2)CCN1 [I-G-61, (S)-2-amino-6-fluoro-N-(5-fluoro-4-(4-(3-methylpiperazine-1-carbonyl)piperidin-1-yl)pyridin-3-yl)pyrazolo[1,5-a]pyrimidine-3-carboxamide]",+++ (Cisplatin sensitization value of <0.02 μM)
24,"CN1CCN(C(=O)c2cnc(-c3ccncc3NC(=O)c3c(N)nn4cc(F)cnc34)c(Cl)c2)CC1 [I-C-46, 2-amino-N-(3-chloro-5-(4-methylpiperazine-1-carbonyl)-[2,4′-bipyridin]-3′-yl)-6-fluoropyrazolo[1,5-a]pyrimidine-3-carboxamide]",+ (Cisplatin sensitization value>0.2 μM but <5 μM)
25,"CN1CCC(Oc2ccncc2NC(=O)c2c(N)nn3cc(Cl)cnc23)CC1 [I-O-64, 2-amino-6-chloro-N-(4-((1-methylpiperidin-4-yl)oxy)pyridin-3-yl)pyrazolo[1,5-a]pyrimidine-3-carboxamide]",+++ (Cisplatin sensitization value of <0.02 μM)
26,"CCOc1ccncc1NC(=O)c1c(N)nn2cc(Cl)cnc12 [I-O-56, 2-amino-6-chloro-N-(4-ethoxypyridin-3-yl)pyrazolo[1,5-a]pyrimidine-3-carboxamide]",+++ (Cisplatin sensitization value of <0.02 μM)
27,"COCCS(=O)(=O)C1CCN(c2ccncc2NC(=O)c2c(N)nn3cc(F)cnc23)CC1 [I-N-208, 2-amino-6-fluoro-N-(4-(4-((2-methoxyethyl)sulfonyl)piperidin-1-yl)pyridin-3-yl)pyrazolo[1,5-a]pyrimidine-3-carboxamide]",+++ (Cisplatin sensitization value of <0.02 μM)
28,"N#CCc1cnc2c(C(=O)Nc3cnccc3OC3CNC3)c(N)nn2c1 [I-O-82, 2-amino-N-(4-(azetidin-3-yloxy)pyridin-3-yl)-6-(cyanomethyl)pyrazolo[1,5-a]pyrimidine-3-carboxamide]",++ (Cisplatin sensitization value>0.02 μM but <0.2 μM)
29,"CN1CCN(C(=O)N2CCC(c3ccncc3NC(=O)c3c(N)nn4cc(F)cnc34)CC2)CC1 [I-C-17, 2-amino-6-fluoro-N-(4-(1-(4-methylpiperazine-1-carbonyl)piperidin-4-yl)pyridin-3-yl)pyrazolo[1,5-a]pyrimidine-3-carboxamide]",++ (Cisplatin sensitization value>0.02 μM but <0.2 μM)
30,"Nc1nn2cc(Cl)cnc2c1C(=O)Nc1cnccc1C1CCN(C2COC2)CC1 [I-C-11, 2-amino-6-chloro-N-(4-(1-(oxetan-3-yl)piperidin-4-yl)pyridin-3-yl)pyrazolo[1,5-a]pyrimidine-3-carboxamide]",+++ (Cisplatin sensitization value of <0.02 μM)
